Values of other authors as cited in patent US9205054B2 (LOSAN PHARMA GMBH, priority 2005, dated 2015).
Like-named read-outs stand apart in the source and are kept apart here.

Legend:
[1] = 0.1 molar hydrochloric acid solution, after one hour

dissolved ibuprofen [1]: 10%
solubility (pH 1-5): under 0.1 g/l
solubility (pH 7.2): about 20 g/l
SMILES: CC(C)Cc1ccc(C(C)C(=O)O)cc1 (racemic) [Ibuprofen, 2-(4-isobutylphenyl)propionic acid]
